The results in this text go back to patent US9872870B2, “Multifunctional micellar nanoparticle-based drug and targeting agent system” (University of Notre Dame du Lac, priority 2011, dated 2018).

In data set [1] the test system is NCI-H929 cells. Description: Cytotoxicity on fibronectin or BSA coated plates (CAM-DR). How it is done:
Cytotoxicity assays: Cytotoxicity was determined using Cell Counting Kft-8 (Dojindo) as previously described. […] In all cases, cell viability was assessed by cell counting kit-8 (CCK-8), and data represent means (±SD) of triplicate cultures.
Cell viability was assessed by cell counting kit-8 (CCK-8), and data represent means (±SD) of triplicate cultures.

Data set [2] deals with NCI-H929 subcutaneous xenograft. The experiment in a line: Subcutaneous xenograft model of MM, tumor growth. It is filed as in vivo, CB.17 SCID mice. Conditions: 6 mg/kg Dox equivalents iv on days 1, 3 and 5. How it is done:
(§1) To validate the therapeutic efficacy of multifunctional nanoparticles, CB.17 SCID mice (Harlan Laboratories) were irradiated with 150 rad, and were inoculated subcutaneously with 5×10^6 NCI-H929 cells. […] When the tumors were palpable, each mouse was injected with the drug, intravenously, on days 1, 3, and 5. […] Animals were monitored for body weight and tumor volume by caliper measurements. Tumor growth inhibition was detected by caliper measurements (left). Data shown are means (±SE) of n=6-8 per treatment group. Statistical comparisons of continuous variables were carried out by Student's two-tailed t-test and were considered significant when P<0.05.
(§2) For determination of systemic toxicity, 3 additional mice from each group were sacrificed on day 5 before any lethality was observed. Organ weights were measured. For complete blood count analysis, 200 μl of blood was drawn from each mouse via cardiac puncture, immediately mixed with 50 μl of Sequester Solution (Cambridge Diagnostic Products), and was analyzed with the HemaVet950 (Drew Scientific). Immunohistochemical staining of excised tumors for caspase-3 was performed as previously described.
Three mice from each group were dissected on day 5 and tumors were stained for activated caspase-3. Representative images of tumor cross-sections that were captured using a Nikon Eclipse TS100 microscope at 20× magnification are shown.

Data set [3] concerns NCI-H929 cells. The experiment in a line: DNA double strand breaks and apoptosis (western blot, immunocytochemistry, Annexin V). Conditions: 250 nM Dox equivalents, 0-48 h. Format: cell-based, human. How it is done:
It is well established that Dox induces DNA double strand breaks (DSBs) and apoptosis of cancer cells. An early specific cellular response to DSBs in mammalian cells is the phosphorylation of the histone protein H2AX (γ-H2AX), with respective foci formation. Therefore, we examined whether free Dox and NPDox/VLA-4-pep triggered similar signaling cascades of DNA damage and apoptosis in MM cells. […] Phosphorylation of DNA damage response protein H2AX at Ser139 was assayed by western blotting (FIG. 10a). Respective H2AX foci formation was assayed by immunocytochemistry (FIG. 10b). Apoptosis was assessed by flow cytometry following Annexin V-FITC staining (FIG. 10c), and by western blotting for PARP cleavage and caspase-8 and caspase-9 activation (FIG. 10d).
For immunocytochemistry analysis, cytospins of drug-treated cells were prepared on glass slides and fixed with 4% paraformaldehyde. Slides were blocked with 5% goat serum, incubated with y-H2AX antibody (Cell Signaling) overnight at 4° C., and then with AlexaFluor-488-labelled Fab2 (Molecular Probes). Coverslips were then mounted on the glass slides with VectaShield antifade/DAR (Vector Labs) and analyzed by Nikon Eclipse TS100 fluorescence microscope at 60×/0.5-1.25 oil, with a Nikon Infinity camera. For flow cytometric analysis, data represent means (±SD) of triplicate experiments. For western blotting, representative images are shown, and all antibodies were purchased from Cell Signaling.
For orientation: In western blotting, separated proteins are transferred to a membrane and probed.

The subject of the next data set is NCI-H929 MM cells. Description: Cytotoxicity assay (Cell Counting Kit-8). Format: cell-based, human. To be noted: Dox equivalents. Here is the method:
To determine cytotoxicity in the presence of fibronectin, MM cells were plated on fibronectin coated plates (40 μg/ml), in adhesion buffer, for 1 h. […] BSA coated plates were used as controls.

Data set [4] is described as follows: Systemic toxicity in tumor bearing mice (body weight, lethality, blood count, organ weights, histopathology). It is filed as in vivo, CB.17 SCID mice. How it is done: as §1, §2
To evaluate systemic toxicity, analysis of complete blood cell count, which is highly susceptible to chemotherapeutic agents, was performed. Three mice from each group were dissected on day 5, and complete blood count (white blood cell, red blood cell, and thrombocyte) was performed (FIG. 12e). Data represents means (±SE). *P<0.05, when compared to free Dox group.

Usually IC50 stands for the concentration that gives 50% inhibition. Take `COc1cccc2c1C(=O)c1c(O)c3c(c(O)c1C2=O)C[C@@](O)(C(=O)CO)C[C@@H]3O[C@H]1C[C@H](N)[C@H](O)[C@H](C)O1` [free Dox, doxorubicin]: the “IC50, cytotoxicity in the presence of fibronectin” value in the data set with NCI-H929 cells [1] is listed as 0.421-0.09 μM. Further, the “IC50 shift caused by adhesion to fibronectin (CAM-DR)” value in the data set with NCI-H929 cells [1] (fibronectin vs BSA coated plates, 72 h) is on record as 3 fold. Moreover, the tumor growth inhibition result in data set [2] is “dramatic tumor growth inhibition”. Also, in the data set on NCI-H929 cells [3], the H2AX phosphorylation result is given as “induced H2AX phosphorylation”; the “apoptosis (annexin V, PARP and caspase-8 activation)” value is reported as “induced apoptosis”; the caspase-9 activation entry is on record as “No significant caspase-9 activation”. Also, the concentration for half-maximal inhibition (IC50) in the data set with NCI-H929 MM cells (NCI-H929, 48 h) stood at 190 ± 40 nM. In the data set on NCI-H929 MM cells (NCI-H929, 72 h), the IC50 is ~130 nM. The lethality entry in data set [4] (6 mg/kg Dox equivalents iv on days 1, 3 and 5) is “lethality of all mice on day 7”. Further, the “body weight loss” value in data set [4] (6 mg/kg iv on days 1, 3 and 5) is recorded as “significant loss of body weight”. Besides, in data set [4] (day 5), the “liver mass loss and histopathology” value was “moderate hepatocellular hypertrophy and degeneration”; the “spleen mass loss and histopathology” value is “severe fibrosis”.
